Assay: mn = molality of the nth substance listed, in mol/kg
Conditions: Liquid, Vibrating tube method

[Cl-].[Cl-].[Zn+2] [zinc chloride] + CO
Conditions | mass density [kg/m3]
373.3 K, 29997 kPa, m1 = 0.8018 | 819.65
373.3 K, 30012 kPa, m1 = 0.4768 | 792.89
373.3 K, 34983 kPa, m1 = 0.8018 | 824.61
373.3 K, 34984 kPa, m1 = 1.039 | 843.03
373.3 K, 34986 kPa, m1 = 5.367 | 1146.17
373.3 K, 34987 kPa, m1 = 0.4768 | 797.89
373.3 K, 34997 kPa, m1 = 1.977 | 915.82
373.3 K, 35008 kPa, m1 = 0.1348 | 768.23
373.3 K, 39990 kPa, m1 = 1.039 | 847.71
373.3 K, 39991 kPa, m1 = 0.8018 | 829.37
373.3 K, 39993 kPa, m1 = 0.1348 | 773.04
373.3 K, 39995 kPa, m1 = 5.367 | 1150.53
373.3 K, 39997 kPa, m1 = 1.977 | 920.45
373.3 K, 40000 kPa, m1 = 0.4768 | 802.68
398.33 K, 893 kPa, m1 = 0.1348 | 695.88
398.33 K, 899 kPa, m1 = 5.367 | 1083.75
398.33 K, 904 kPa, m1 = 1.039 | 773.5
398.33 K, 905 kPa, m1 = 1.977 | 848.36
398.33 K, 907 kPa, m1 = 0.8018 | 754.11
398.33 K, 908 kPa, m1 = 0.4768 | 726.55
398.33 K, 4981 kPa, m1 = 0.4768 | 734.09
398.33 K, 4985 kPa, m1 = 1.977 | 854.8
398.33 K, 4988 kPa, m1 = 0.8018 | 761.4
398.33 K, 4994 kPa, m1 = 0.1348 | 703.77
398.33 K, 5002 kPa, m1 = 5.367 | 1088.78
398.33 K, 5004 kPa, m1 = 1.039 | 780.59
398.33 K, 9983 kPa, m1 = 0.4768 | 742.44
398.33 K, 9984 kPa, m1 = 0.1348 | 712.39
398.33 K, 9984 kPa, m1 = 0.8018 | 769.52
398.33 K, 9988 kPa, m1 = 5.367 | 1094.64
398.33 K, 9993 kPa, m1 = 1.039 | 788.48
398.33 K, 9999 kPa, m1 = 1.977 | 862.15
398.33 K, 14985 kPa, m1 = 1.039 | 795.7
398.33 K, 14988 kPa, m1 = 0.1348 | 720.18
398.33 K, 14993 kPa, m1 = 0.4768 | 750.05
398.33 K, 14994 kPa, m1 = 0.8018 | 776.95
398.33 K, 15018 kPa, m1 = 5.367 | 1100.25
398.33 K, 15019 kPa, m1 = 1.977 | 868.94
398.33 K, 19982 kPa, m1 = 0.8018 | 783.77
398.33 K, 19982 kPa, m1 = 1.039 | 802.38
398.33 K, 19984 kPa, m1 = 0.1348 | 727.3
398.33 K, 19994 kPa, m1 = 0.4768 | 757.02
398.33 K, 19996 kPa, m1 = 1.977 | 875.28
398.33 K, 20003 kPa, m1 = 5.367 | 1105.62
398.33 K, 24984 kPa, m1 = 1.039 | 808.61
398.33 K, 24989 kPa, m1 = 5.367 | 1110.77
398.33 K, 24992 kPa, m1 = 0.4768 | 763.47
398.33 K, 25003 kPa, m1 = 0.1348 | 733.89
398.33 K, 25006 kPa, m1 = 0.8018 | 790.16
398.33 K, 25009 kPa, m1 = 1.977 | 881.23
398.33 K, 29990 kPa, m1 = 1.977 | 886.89
398.33 K, 29994 kPa, m1 = 0.8018 | 796.1
398.33 K, 29996 kPa, m1 = 0.1348 | 740.01
398.33 K, 29996 kPa, m1 = 1.039 | 814.47
398.33 K, 29999 kPa, m1 = 5.367 | 1115.75
398.33 K, 30005 kPa, m1 = 0.4768 | 769.51
398.33 K, 34992 kPa, m1 = 0.4768 | 775.14
398.33 K, 34993 kPa, m1 = 0.1348 | 745.75
398.33 K, 35003 kPa, m1 = 5.367 | 1120.56
398.33 K, 35010 kPa, m1 = 1.039 | 819.97
398.33 K, 35011 kPa, m1 = 0.8018 | 801.72
398.33 K, 35014 kPa, m1 = 1.977 | 892.27
398.33 K, 39988 kPa, m1 = 1.977 | 897.37
398.33 K, 39989 kPa, m1 = 0.1348 | 751.12
398.33 K, 39992 kPa, m1 = 0.8018 | 807.01
398.33 K, 39994 kPa, m1 = 5.367 | 1125.22
398.33 K, 39997 kPa, m1 = 1.039 | 825.19
398.33 K, 40002 kPa, m1 = 0.4768 | 780.53
